Common to all, as to assay type: biochemical
In one experiment the target is T1, FLT3 (Homo sapiens, UniProt P36888).
T1 sequence (P36888 27-993): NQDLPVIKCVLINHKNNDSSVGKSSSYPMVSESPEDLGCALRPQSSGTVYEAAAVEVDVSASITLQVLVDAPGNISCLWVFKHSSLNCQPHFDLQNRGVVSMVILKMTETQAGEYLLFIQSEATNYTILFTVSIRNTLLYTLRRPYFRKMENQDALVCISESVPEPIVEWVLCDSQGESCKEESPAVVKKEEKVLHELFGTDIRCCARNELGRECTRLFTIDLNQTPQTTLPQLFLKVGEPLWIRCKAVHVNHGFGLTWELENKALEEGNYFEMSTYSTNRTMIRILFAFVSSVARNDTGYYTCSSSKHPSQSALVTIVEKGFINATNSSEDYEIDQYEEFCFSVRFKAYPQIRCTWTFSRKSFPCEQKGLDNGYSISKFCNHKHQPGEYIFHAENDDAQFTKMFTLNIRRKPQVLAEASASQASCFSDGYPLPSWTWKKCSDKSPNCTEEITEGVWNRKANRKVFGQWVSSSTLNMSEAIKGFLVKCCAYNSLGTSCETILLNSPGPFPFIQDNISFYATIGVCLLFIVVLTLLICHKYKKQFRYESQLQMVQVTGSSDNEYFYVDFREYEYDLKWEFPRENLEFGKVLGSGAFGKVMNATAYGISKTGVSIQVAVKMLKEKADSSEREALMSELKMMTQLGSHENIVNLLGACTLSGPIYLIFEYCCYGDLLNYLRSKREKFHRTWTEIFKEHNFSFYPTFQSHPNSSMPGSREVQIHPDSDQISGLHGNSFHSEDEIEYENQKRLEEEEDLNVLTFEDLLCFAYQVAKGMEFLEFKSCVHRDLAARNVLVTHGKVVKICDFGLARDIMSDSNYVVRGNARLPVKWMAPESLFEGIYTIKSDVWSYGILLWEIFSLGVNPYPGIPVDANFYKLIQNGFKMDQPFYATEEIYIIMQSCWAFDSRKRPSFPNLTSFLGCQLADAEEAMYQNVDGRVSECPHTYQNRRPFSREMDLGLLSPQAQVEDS
Description: FLT3 enzyme activity (IC50). The following applies: read-out: FLT3 IC50. An excerpt:
(§1) Experimental Example 1. Measurement of FLT3 and FLT Enzyme Activity
(§2) Changes in FLT3 and FLT enzyme activities by treatment with the quinazoline derivatives of the following Table 1 according to the present invention were confirmed by IC50.

Another experiment deals with T2, FLT (ITD) (Homo sapiens, UniProt P36888).
T2 sequence (P36888 1-993): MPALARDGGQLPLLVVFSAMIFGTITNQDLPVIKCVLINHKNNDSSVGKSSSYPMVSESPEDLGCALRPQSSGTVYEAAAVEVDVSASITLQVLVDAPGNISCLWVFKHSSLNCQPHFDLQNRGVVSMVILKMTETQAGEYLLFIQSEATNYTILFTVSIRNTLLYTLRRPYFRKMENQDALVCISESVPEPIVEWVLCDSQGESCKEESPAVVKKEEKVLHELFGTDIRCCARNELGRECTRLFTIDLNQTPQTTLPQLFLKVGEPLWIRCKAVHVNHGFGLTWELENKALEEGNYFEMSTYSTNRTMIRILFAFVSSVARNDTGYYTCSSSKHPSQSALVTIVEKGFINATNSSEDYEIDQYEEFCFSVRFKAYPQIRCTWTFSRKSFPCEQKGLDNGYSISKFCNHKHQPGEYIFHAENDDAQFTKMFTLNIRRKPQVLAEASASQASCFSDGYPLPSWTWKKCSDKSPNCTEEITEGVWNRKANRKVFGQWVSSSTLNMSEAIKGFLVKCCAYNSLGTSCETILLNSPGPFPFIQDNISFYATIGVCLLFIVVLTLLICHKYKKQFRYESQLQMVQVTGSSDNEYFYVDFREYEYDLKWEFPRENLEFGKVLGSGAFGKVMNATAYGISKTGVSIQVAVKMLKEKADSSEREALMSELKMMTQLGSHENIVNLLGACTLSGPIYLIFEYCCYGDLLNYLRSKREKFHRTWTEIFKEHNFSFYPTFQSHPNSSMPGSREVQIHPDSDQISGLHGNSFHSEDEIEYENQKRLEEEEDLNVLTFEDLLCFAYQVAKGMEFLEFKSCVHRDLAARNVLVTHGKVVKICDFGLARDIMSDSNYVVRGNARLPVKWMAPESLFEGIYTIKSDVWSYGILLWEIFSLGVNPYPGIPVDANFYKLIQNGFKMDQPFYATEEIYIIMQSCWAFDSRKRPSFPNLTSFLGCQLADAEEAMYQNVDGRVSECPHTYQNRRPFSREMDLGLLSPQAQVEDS
The experiment can be described thus: FLT (ITD) enzyme activity (IC50). The conditions noted are these: read-out: FLT (ITD) IC50.
Text: as §1, §2

The next experiment concerns the target ERK1 (Homo sapiens, UniProt P27361). Description: Kinase panel screening. The following applies: control SCH772984 instead of staurosporine.
For a further experiment, the target named is RIPK3 (Homo sapiens, UniProt Q9Y572). The experiment can be described thus: Kinase panel screening. The conditions noted are these: read-out: IC50 (nM), data of GW5074, control GW5074 instead of staurosporine. As for the experimental part:
Next, kinase panel screening for Compound 7d was investigated for 36 different kinases at a single dose of 10 μM (FIG. 1 and Table 3).

Each structure is given as a SMILES string.

As usually defined, the IC50 is the concentration needed to halve the response being measured.

ERK1, sequence (P27361 whole entry, species assumed): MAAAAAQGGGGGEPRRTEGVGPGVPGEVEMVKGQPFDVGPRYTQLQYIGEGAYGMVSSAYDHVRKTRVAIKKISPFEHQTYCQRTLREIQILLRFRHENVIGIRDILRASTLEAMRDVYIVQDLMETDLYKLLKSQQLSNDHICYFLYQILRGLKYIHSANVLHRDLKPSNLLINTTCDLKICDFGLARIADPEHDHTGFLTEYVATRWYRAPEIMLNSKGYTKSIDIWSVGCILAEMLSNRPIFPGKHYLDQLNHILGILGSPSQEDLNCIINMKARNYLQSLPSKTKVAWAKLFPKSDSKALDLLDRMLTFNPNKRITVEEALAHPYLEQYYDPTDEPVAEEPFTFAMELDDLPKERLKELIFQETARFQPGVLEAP
RIPK3, sequence (Q9Y572 whole entry, species assumed): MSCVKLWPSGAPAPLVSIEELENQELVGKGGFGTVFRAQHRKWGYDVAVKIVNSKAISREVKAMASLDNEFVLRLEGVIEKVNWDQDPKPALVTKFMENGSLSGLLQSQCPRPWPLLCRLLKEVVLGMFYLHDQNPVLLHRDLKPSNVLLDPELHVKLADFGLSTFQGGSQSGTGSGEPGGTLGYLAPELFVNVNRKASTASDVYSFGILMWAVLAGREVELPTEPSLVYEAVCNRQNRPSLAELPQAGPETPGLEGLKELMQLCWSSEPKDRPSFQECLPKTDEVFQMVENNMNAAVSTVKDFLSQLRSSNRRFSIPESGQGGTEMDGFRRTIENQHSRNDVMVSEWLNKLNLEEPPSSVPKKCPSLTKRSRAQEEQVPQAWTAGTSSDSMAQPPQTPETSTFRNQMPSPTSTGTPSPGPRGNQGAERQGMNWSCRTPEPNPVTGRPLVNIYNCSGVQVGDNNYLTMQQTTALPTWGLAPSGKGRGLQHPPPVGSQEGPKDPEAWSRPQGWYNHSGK

Take `Cc1oncc1C(=O)Nc1ccc2cnc(-c3cc(N4CCOCC4)cc(C(F)(F)F)c3)nc2c1` [Compound 7b, 5-methyl-N-(2-(3-morpholino-5-(trifluoromethyl)phenyl)quinzolin-7-yl)isoxazole-4-carboxamide]: the IC50 at FLT3 and on FLT (ITD) was 3 to 10 µM in each case.

The compound `O=C(Nc1ccc2[nH]nc(-c3ccncc3)c2c1)[C@@H]1CCN(CC(=O)N2CCN(c3ccc(-c4ncccn4)cc3)CC2)C1` [SCH772984, reference compound] yielded an IC50 at ERK1 of 4.47 nM.

As for `Cc1oncc1C(=O)Nc1ccc2cnc(-c3cc(C(C)(C)C)on3)nc2c1` [Compound 7l, N-(2-(5-(tert-butyl)isoxazol-3-yl)quinazolin-7-yl)-5-methylisoxazole-4-carboxamide], the IC50 on FLT3 and on FLT (ITD) was greater than 10 µM each time.

Take `CCN1CCN(Cc2cc(-c3ncc4ccc(NC(=O)c5cnoc5C)cc4n3)cc(C(F)(F)F)c2)CC1` [Compound 7e, N-(2-(3-((4-ethylpiperazin-1-yl)methyl)-5-(trifluoromethyl)phenyl)quinazolin-7-yl)-5-methylisoxazole-4-carboxamide]: the IC50 at FLT3 was less than 3 µM; on FLT (ITD), 3 to 10 µM.

For `Cc1oncc1C(=O)Nc1ccc2cnc(-c3ccc4c(c3)CCO4)nc2c1` [Compound 7v, N-(2-(2,3-dihydrobenzofuran-5-yl)quinazolin-7-yl)-5-methylisoxazole-4-carboxamide], the IC50 on FLT3 and at FLT (ITD) was greater than 10 µM each time.

For the compound `Cc1oncc1C(=O)Nc1ccc2cnc(-c3cccc(Cl)c3)nc2c1` [Compound 7i, N-(2-(3-chlorophenyl)quinazolin-7-yl)-5-methylisoxazole-4-carboxamide], the IC50 at FLT3 and at FLT (ITD) was greater than 10 µM throughout.

Consider `Cc1oncc1C(=O)Nc1ccc2cnc(-c3ccc(Cl)c(C(F)(F)F)c3)nc2c1` [Compound 7g, N-(2-(4-chloro-3-(trifluoromethyl)phenyl)quinazolin-7-yl)-5-methylisoxazole-4-carboxamide], for which the IC50 on FLT3 and on FLT (ITD) was greater than 10 µM throughout.

Consider `Cc1oncc1C(=O)Nc1ccc2cnc(-c3cc(OC4CCN(C)CC4)cc(C(F)(F)F)c3)nc2c1` [Compound 7n, 5-methyl-N-(2-(3-((1-methylpiperidin-4-yl)oxy)-5-(trifluoromethyl)phenyl)quinazolin-7-yl)isoxazole-4-carboxamide], for which the IC50 on FLT3 and on FLT (ITD) was 3 to 10 µM in each case.

For `Cc1oncc1C(=O)Nc1ccc2cnc(/C=C/c3ccc(Cl)cc3)nc2c1` [Compound 7k, (E)-N-(2-(4-chlorostyryl)quinazolin-7-yl)-5-methylisoxazole-4-carboxamide], the IC50 on FLT3 and at FLT (ITD) was greater than 10 µM each time.

`Cc1cn(-c2cc(-c3ncc4ccc(NC(=O)c5cnoc5C)cc4n3)cc(C(F)(F)F)c2)cn1` [Compound 7c, 5-methyl-N-(2-(3-(4-methyl-1H-imidazol-1-yl)-5-(trifluoromethyl)phenyl)quinazolin-7-yl)isoxazole-4-carboxamide]: the IC50 at FLT3 and at FLT (ITD) was less than 3 µM throughout.

On to `Cc1oncc1C(=O)Nc1ccc2cnc(-c3ccncc3)nc2c1` [Compound 7p, 5-methyl-N-(2-(pyridin-4-yl)quinazolin-7-yl)isoxazole-4-carboxamide], for which the IC50 at FLT3 and on FLT (ITD) was greater than 10 µM throughout.

In the case of `Cc1oncc1C(=O)Nc1ccc2cnc(-c3ccccn3)nc2c1` [Compound 7q, 5-methyl-N-(2-(pyridin-2-yl)quinazolin-7-yl)isoxazole-4-carboxamide], the half-inhibitory concentration (IC50) on FLT3 and at FLT (ITD) was greater than 10 µM each time.

Consider `CC(=O)N1CCC(c2ncc3ccc(NC(=O)c4cnoc4C)cc3n2)CC1` [Compound 7o, N-(2-(1-acetylpiperidin-4-yl)quinazolin-7-yl)-5-methylisoxazole-4-carboxamide], for which the IC50 at FLT3 and at FLT (ITD) was greater than 10 µM each time.

In the case of `Cc1oncc1C(=O)Nc1ccc2cnc(-c3cc(F)cc(C(F)(F)F)c3)nc2c1` [Compound 7f, N-(2-(3-fluoro-5-(trifluoromethyl)phenyl)quinazolin-7-yl)-5-methylisoxazole-4-carboxamide], the IC50 at FLT3 and on FLT (ITD) was greater than 10 µM in each case.

`Cc1oncc1C(=O)Nc1ccc2cnc(-c3cnn(-c4ccccc4)c3C(F)(F)F)nc2c1` [Compound 7h, 5-methyl-N-(2-(1-phenyl-5-(trifluoromethyl)-1H-pyrazol-4-yl)quinazolin-7-yl)isoxazole-4-carboxamide]: the IC50 at FLT3 and on FLT (ITD) was greater than 10 µM each time.

For the compound `Cc1oncc1C(=O)Nc1ccc2cnc(-c3ccc(N4CCOCC4)c(C(F)(F)F)c3)nc2c1` [Compound 7a, 5-methyl-N-(2-(4-morpholino-5-(trifluoromethyl)phenyl)quinazolin-7-yl)isoxazole-4-carboxamide], the IC50 at FLT3 and at FLT (ITD) was greater than 10 µM throughout.

For `COc1ccc(CCc2ncc3ccc(NC(=O)c4cnoc4C)cc3n2)cc1` [Compound 7w, N-(2-(4-methoxyphenethyl)quinazolin-7-yl)-5-methylisoxazole-4-carboxamide], the IC50 on FLT3 and on FLT (ITD) was greater than 10 µM each time.

For `Cc1oncc1C(=O)Nc1ccc2cnc(Cc3ccc(F)cc3)nc2c1` [Compound 7s, N-(2-(4-fluorobenzyl)quinazolin-7-yl)-5-methylisoxazole-4-carboxamide], the IC50 at FLT3 and at FLT (ITD) was greater than 10 µM in each case.

On to `Cc1oncc1C(=O)Nc1ccc2cnc(Cc3ccccc3C(F)(F)F)nc2c1` [Compound 7t, 5-methyl-N-(2-(2-(trifluoromethyl)benzyl)quinazolin-7-yl)isoxazole-4-carboxamide], for which the IC50 on FLT3 and on FLT (ITD) was greater than 10 µM throughout.

`O=C1Nc2ccc(I)cc2/C1=C/c1cc(Br)c(O)c(Br)c1` [GW5074, reference compound]: the IC50 on RIPK3 amounted to 1650 nM.

As to `COc1ccc(/C=C/c2ncc3ccc(NC(=O)c4cnoc4C)cc3n2)cc1` [Compound 7j, (E)-N-(2-(4-methoxystyryl)quinazolin-7-yl)-5-methylisoxazole-4-carboxamide], the IC50 at FLT3 is 3 to 10 µM; on FLT (ITD) it was greater than 10 µM.

Regarding `Cc1oncc1C(=O)Nc1ccc2cnc(-c3ccc(Cl)c(Cl)c3)nc2c1` [Compound 7r, N-(2-(3,4-dichlorophenyl)quinazolin-7-yl)-5-methylisoxazole-4-carboxamide], the IC50 at FLT3 and at FLT (ITD) was greater than 10 µM in each case.

As to `Cc1oncc1C(=O)Nc1ccc2cnc(-c3ccc4ccccc4c3)nc2c1` [Compound 7u, 5-methyl-N-(2-(naphthalen-2-yl)quinazolin-7-yl)isoxazole-4-carboxamide], the IC50 at FLT3 and at FLT (ITD) was greater than 10 µM in each case.

(Values after patent US12617758B2, “Quinazoline derivative having FLT3 inhibitory activity, and use thereof” (INDUSTRY-UNIVERSITY COOPERATION FOUNDATION HANYANG …, priority 2020, dated 2026).)
